“Also recorded” adds a separate entry of the source. No end group written: not given here.
Columns and labels:
[1] = tested on: oligomeric versus monomeric Aβ1-42 (Aβ1-42-biotin bait); assay: Affinity capture interactome Experiment III (oAβ1-42-biotin vs mAβ1-42-biotin); conditions: TMT; for Experiment III oAβ1-42-B/mAβ1-42-B Ratio: oligomeric versus monomeric bait, human frontal lobe digitonin extract, pH 8.0, 4°C overnight
[2] = tested on: oligomeric Aβ1-42 (oAβ1-42-biotin bait); assay: Affinity capture interactome Experiment II (C-terminally tethered oAβ1-42-biotin vs biotin); conditions: enrichment relative to biotin-only negative control; human frontal lobe digitonin extract; TMT; pH 8.0, 4°C overnight
[3] = tested on: tau phosphorylated at pSer202/pThr205 (AT8) and pThr231 (AT180) in primary hippocampal neurons; assay: Primary hippocampal neuron tau phosphorylation assay (Western blot); conditions: for effect on oAβ1-42-induced tau hyperphosphorylation: peptide added together with oAβ1-42; for reduction in tau phosphorylation at AT8, pre-aggregated peptide alone: peptide subjected to pre-aggregation step, no Aβ
[4] = biological target: T1, Aβ1-42 (Homo sapiens, UniProt P05067); assay: Thioflavin T (ThT) fluorescence Aβ1-42 aggregation assay; format: biochemical
T1 construct: purchased Anaspec, Inc. (Fremont, CA, USA) AS-24224; host or cells: synthetic peptide
T1 sequence (P05067 672-713 limits assumed): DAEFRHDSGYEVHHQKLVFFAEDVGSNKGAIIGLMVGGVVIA
Protocol: (§1) Assay procedures were largely based on a protocol described by Sarah Linse’s group ([Hellstrand et al., 2010]). […] 100 μL of peptide solutions were supplemented with 25 μM thioflavin T (ThT) (catalog number T3516, Sigma-Aldrich Canada, Oakville, ON, Canada) and loaded into 96-Well Half-Area Microplates (catalog number 675096, Greiner Bio One International, Kremsmünster, Austria). The subsequent plate incubation proceeded at 37°C with shaking at 700 rpm for 4 of every 5 min in a microplate reader (CLARIOstar, BMG Labtech, Guelph, ON, Canada) for overall durations specified in individual figures. ThT fluorescence was measured every 5 min at excitation and emission wavelengths of 444 nm and 485 nm, respectively.

[5] = biological target: T1, Aβ1-42; assay: Western blot of ThT assay fractions: oligomeric complexes of Aβ1-42; format: biochemical; conditions: for SDS-stable complex with three Aβ1-42 peptides: five-fold increased Aβ1-42 level
Text: (§2) Next, Western blot analyses of ThT assay fractions were undertaken without or with prior boiling in SDS. […] Only when SDS was present in the sample buffer, low mass bands appeared in the Western blot that migrated at a level expected for the monomeric Aβ peptide, consistent with the interpretation that these peptides were released from larger oligomeric or fibrillar aggregates under denaturing conditions (see also Figure 5).

[6] = tested on: Aβ1-42 and Aβ17-42 biotin baits; assay: iTRAQ affinity capture with four baits (biotin, biotin-Aβ1-42, Aβ1-42-biotin, Aβ17-42-biotin); format: binding; conditions: oAβ1-42-biotin versus N-terminally biotinylated Aβ1-42, Aβ17-42-biotin and biotin; human frontal lobe extract
Text: This conclusion was strengthened by the fact that this peptide is naturally preceded by a tryptic cleavage site and the exquisite match between observed and in silico predicted fragment ions (Figure 2B). In light of the high intensity ion counts of fragments observed for this peptide and its robust co-enrichment with oAβ1-42-B in three biological replicates (Figure 2C), it first seemed puzzling that the identification of this protein group was not corroborated by other spectra that map to sequences outside of the ‘NFFWK’ sequence stretch. Searching for a plausible explanation, it became apparent that preprosomatostatin and preprocortistatin give rise to cyclic neuropeptide hormones through a series of posttranslational trimming steps, and the ‘NFFWK’ peptide is the only tryptic peptide derived from the mature hormone that is of sufficient length and distinct sequence to be readily identifiable by MS (Figure 2A). […] This conclusion was further corroborated by two additional PSMs that mapped to regions outside the SST14 neuropeptide sequence and one additional five amino acid peptide of the sequence ‘TFTSC’ that could be assigned (albeit not unambiguously) to the mature SST14 neuropeptide sequence itself.

[7] = biological target: T1, Aβ1-42; assay: Western blot / silver stain detection of Aβ1-42 after incubation with SST14 or CST17; format: biochemical
Protocol: Initially, we were interested in observing the influence of incubation time on sample composition (Figure 5B).

[8] = biological target: T2, Aβ1-40 (Homo sapiens, UniProt P05067); assay: ThT fluorescence Aβ1-40 aggregation assay; format: biochemical; conditions: 5 to 10 times higher peptide concentrations
T2 construct: Aβ1-40 (catalog number AS-24236); purchased Anaspec, Inc. (Fremont, CA, USA) AS-24236; host or cells: synthetic peptide
T2 sequence (P05067 672-711 limits assumed): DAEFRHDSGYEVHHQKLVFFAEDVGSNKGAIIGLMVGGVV
Text: as §2, §1

[9] = biological target: Aβ1-42-TMR (Homo sapiens, UniProt P05067); assay: FRET competition assay (Edans-SST14 / Aβ1-42-TMR)
Aβ1-42-TMR, sequence (P05067 672-713 limits assumed): as the sequence (P05067 672-713 limits assumed) above

Cofilin-1: human brain protein
Experiment III oAβ1-42-B/mAβ1-42-B Ratio [1]: 5.34
Experiment II oAβ1-42-B/B Ratio [2]: 1.75

SST28: longer bioactive version of somatostatin, Anaspec AS-22902 (SANSNPAMAPRERKAGCKNFFWKTFTSC; ends and bridges not checked; cysteine pairing not given here; UniProt P61278 89-116, looked up)
effect on oAβ1-42-induced tau hyperphosphorylation [3]: did not prevent the anticipated tau hyperphosphosphorylation-inducing effect of oAβ1-42 exposure

Dihydropyrimidinase-related protein 1: human brain protein
Experiment III oAβ1-42-B/mAβ1-42-B Ratio [1]: 3.71
Experiment II oAβ1-42-B/B Ratio [2]: 1.39

[Arg8]-vasopressin [AVP]
lag phase extension of Aβ1-42 aggregation ([4]; 15 μM SST14 (or control peptide), SEC-purified Aβ1-42, 25 μM ThT, 37°C, shaking 700 rpm): No delay was observed
reduction in tau phosphorylation at AT8, pre-aggregated peptide alone [3]: not seen
formation of 50-60 kDa Aβ1-42 bands (in words) ([5]; 18 hr co-incubation, 6E10): not seen in samples incubated either without these peptides or with AVP
SDS-stable complex with three Aβ1-42 peptides ([5]; Western blot): never observed in fractions lacking SST14 (or CST17) or containing AVP

2,4-dienoyl-CoA reductase, mitochondrial: human brain protein
Experiment III oAβ1-42-B/mAβ1-42-B Ratio [1]: 4.32

Interleukin enhancer-binding factor 2: human brain protein
Experiment III oAβ1-42-B/mAβ1-42-B Ratio [1]: 1.41

DnaJ homolog subfamily A member 2: human brain protein
Experiment III oAβ1-42-B/mAβ1-42-B Ratio [1]: 6.10

ATP synthase subunit beta, mitochondrial: human brain protein
Experiment III oAβ1-42-B/mAβ1-42-B Ratio [1]: 2.61

Ras-related protein Rab-1A: human brain protein
Experiment III oAβ1-42-B/mAβ1-42-B Ratio [1]: 3.28

bombesin
reduction in tau phosphorylation at AT8, pre-aggregated peptide alone [3]: not seen

Dihydropyrimidinase-related protein 3: human brain protein
Experiment III oAβ1-42-B/mAβ1-42-B Ratio [1]: 3.40
Experiment II oAβ1-42-B/B Ratio [2]: 1.42

Carbohydrate kinase domain-containing protein: human brain protein
Experiment III oAβ1-42-B/mAβ1-42-B Ratio [1]: 1.72
Experiment II oAβ1-42-B/B Ratio [2]: 2.17

NFFWK
binding preference for oligomeric versus monomeric Aβ1-42-biotin (in words) ([1]; Experiment III, human frontal lobe extract): binds preferentially to oligomeric (pre-aggregated) but not monomeric Aβ1-42-biotin
capture by Aβ baits (iTRAQ signature ion intensity) [6]: the free N-terminus is indeed essential for this peptide-peptide interaction

CST17: preprocortistatin-derived regulatory peptide, Bachem H-5536
intensity of HMM 6E10 signals ([7]; 18 hr incubation, 6E10 Western blot): only very weak HMM signals
concentration dependence of 6E10-reactive blot signals ([7]; 18 hr incubation, varying SST14 or CST17 concentration): inverse correlation
masking of Aβ1-42 detection by antibodies 6E10, 4G8, 12F4 ([7]; 18 hr incubation, 4G8 and 12F4 not shown): masked the ability of these antibodies to bind to Aβ1-42
silver-stain Aβ1-42 signal ([7]; silver-stain of same fractions): relatively stronger Aβ1-42 signals
lag phase extension of Aβ (Aβ1-42) aggregation ([4]; 5 to 10 times higher peptide concentrations, SST14 not shown): approximately one hour
concentration dependence of effect on Aβ1-42 aggregation ([4]; ThT, 37°C): concentration-dependent inhibition of Aβ1-42-dependent ThT fluorescence
relative potency versus SST14 in interfering with Aβ1-42 aggregation ([4]; compared with SST14 (at 15 μM in ThT assay)): more potent in this regard than SST14; also recorded: even more pronounced effects on Aβ aggregation than SST14
inhibition of Aβ1-42-dependent ThT incorporation ([4]; peptide 15 μM, 37°C, 25 μM ThT): completely abrogated ThT incorporation
lag phase extension of Aβ (Aβ1-40) aggregation ([8]; SST14 not shown): approximately one hour
effect on oAβ1-42-induced tau hyperphosphorylation [3]: did not prevent the anticipated tau hyperphosphosphorylation-inducing effect of oAβ1-42 exposure
potentiation of tau hyperphosphorylation with monomeric Aβ1-42 ([3]; pre-incubated peptide 4 µM + mAβ1-42 5 µM, 24 hr exposure): potentiate tau hyperphosphorylation
intensity of homodimeric Aβ1-42 bands ([5]; Western blot lanes 17-20): reduced
size of SDS-resistant heterodimeric complex with mAβ1-42 ([5]; Western blot, x-42 and 6E10 antibodies): 5-6 kDa
detection of 50-60 kDa bands by antibody directed against C-terminus of Aβ1-42 ([5]; boiled in SDS): escaped detection with an antibody directed against the C-terminus of Aβ1-42
SDS-stable complex with three Aβ1-42 peptides ([5]; Western blot): occasionally observed signals that migrated at molecular masses expected for SDS-stable complexes consisting of three Aβ1-42 peptides

C[C@H](N)C(=O)NCC(=O)N[C@H]1CSSC[C@@H](C(=O)O)NC(=O)[C@H](CO)NC(=O)[C@H]([C@@H](C)O)NC(=O)[C@H](Cc2ccccc2)NC(=O)[C@H]([C@@H](C)O)NC(=O)[C@H](CCCCN)NC(=O)[C@H](Cc2c[nH]c3ccccc23)NC(=O)[C@H](Cc2ccccc2)NC(=O)[C@H](Cc2ccccc2)NC(=O)[C@H](CC(N)=O)NC(=O)[C@H](CCCCN)NC1=O [SST14, somatostatin-14]
EC50 [9]: 12.7 µM

CST29: preprocortistatin-derived regulatory peptide, Bachem H-6458 (QEGAPPQQSARRDRMPCRNFFWKTFSSCK; ends and bridges not checked; cysteine pairing not given here; UniProt O00230 77-105, looked up)
effect on oAβ1-42-induced tau hyperphosphorylation [3]: did not prevent the anticipated tau hyperphosphosphorylation-inducing effect of oAβ1-42 exposure

Pyruvate kinase isozymes M1/M2: human brain protein
Experiment III oAβ1-42-B/mAβ1-42-B Ratio [1]: 4.33
Experiment II oAβ1-42-B/B Ratio [2]: 1.68

Aβ1-40: synthetic human Aβ1-40, Anaspec AS-24236
lag phase of Aβ1-40 aggregation ([8]; peptide alone): 45 min

oxytocin: control neuropeptide, Anaspec AS-24275
reduction in tau phosphorylation at AT8, pre-aggregated peptide alone [3]: not seen

Cathepsin D: human brain protein
Experiment III oAβ1-42-B/mAβ1-42-B Ratio [1]: 2.10

Transforming protein RhoA: human brain protein
Experiment III oAβ1-42-B/mAβ1-42-B Ratio [1]: 5.74
